Data on eleven compounds can be found in patent publication EP0831769B2, “NOVEL USES FOR THYROID HORMONES OR THYROID HORMONE-LIKE COMPOUNDS” (Lavin, Dr., Thomas N., priority 1995, dated 1996).

pKi: −log10 of the molar value. Values joined by “and” are separate entries in the source; they are usually repeats but may differ in a detail not shown here. Equal entries are not always repeated. “Also recorded” adds a separate entry of the source. Where two headings read alike, the source gives them in different places.

For one test, the system named is Skin-2 model ZK1301. Kind of test: Skin-2 model: mRNA expression by RT-PCR, semi-quantitative.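 Note: Three-dimensional human skin equivalent of dermal fibroblasts and foreskin keratinocytes at an air-liquid interface, exposed for 10 or 48 h, mRNA measured in total RNA by RT-PCR.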
The next test concerns the target T1, human thyroid receptor (Homo sapiens, UniProt P10828).
T1 sequence (P10828 1-461): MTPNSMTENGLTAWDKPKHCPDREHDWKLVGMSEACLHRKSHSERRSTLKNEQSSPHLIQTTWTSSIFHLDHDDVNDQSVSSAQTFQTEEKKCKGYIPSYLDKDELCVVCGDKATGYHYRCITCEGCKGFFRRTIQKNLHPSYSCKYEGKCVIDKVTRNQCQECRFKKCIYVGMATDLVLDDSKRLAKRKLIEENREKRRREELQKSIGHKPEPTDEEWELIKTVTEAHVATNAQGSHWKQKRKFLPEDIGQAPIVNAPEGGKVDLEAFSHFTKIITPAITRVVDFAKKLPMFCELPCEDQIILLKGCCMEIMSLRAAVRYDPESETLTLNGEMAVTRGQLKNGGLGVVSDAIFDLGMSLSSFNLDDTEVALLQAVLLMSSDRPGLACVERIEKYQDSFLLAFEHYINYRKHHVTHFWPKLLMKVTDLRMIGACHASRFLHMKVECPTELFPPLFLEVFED
Kind of test: Thyroid hormone receptor binding affinity. The text has this: Partial agonist/antagonists also may exist. (Suitable ligands may be agonists or antagonists).

The next test deals with Hairless mice SKH-1. Description: Photodamaged skin: UV-B irradiated hairless mice treated with cream for 16 weeks. It counts as in vivo. The conditions noted are these: cream for 16 weeks after 12 weeks of UV-B irradiation, compared to untreated irradiated animals. The procedure:
Hairless mice SKH-1 are UV-B irradiated according to the schedule of (22). After 12 weeks of irradiation, significant wrinkling results. The mice are treated with the thyroid hormone Triac-containing cream for a period of 16 weeks after irradiation. The degree of wrinkling appearing on the irradiated mice is compared to untreated, irradiated animals to which the appropriate pharmaceutical base is not applied.

For the next test, the system named is phosphodiesterase. The conditions noted are these: in vitro, isolated adipocytes; FR2354101; cited from earlier work.
Setting [1] is: Skin-2 model, 1 µM, semi quantitative mRNA change vs control.
Where [2] appears, read: Table 3, Skin-2 model, 10uM, transcriptional response score.
[3] abbreviates: Table 3, Skin-2 model, 10uM, transcriptional response score, listed as L-T-I.
The mark [4] stands for this setting: Table 3, Skin-2 model, 1 µM, transcriptional response score.
Where [5] appears, read: Skin-2 model, 50 nM, semi quantitative mRNA change vs control.
The mark [6] stands for this setting: Table 3, Skin-2 model, 50nM, transcriptional response score.

Source text for Skin-2 model ZK1301: A novel synthetic human skin, Skin- 2 model ZK1301 (Advanced Tissue Sciences, La Jolla (USA)) is composed of a three dimensional human skin culture consisting of a dermal fibroblast layer and human foreskin keratinocytes which can be grown with an air-keratinocyte interface to promote normal differentiation and cornification of the model skin.
The following were components of the Skin^2 kits: 9x9 mm skin tissues on agarose, 6-well plates, and Millicell inserts. Two media based on Dulbecco's Modification of Eagle's medium were also included: Maintenance medium (containing 5% fetal calf serum) and serum-free assay medium.
All-trans-retinoic acid, 1,25-(OH)2-vitamin D3, and betamethasone were purchased from Sigma Chemicals (Stockholm). Upon arrival the skin tissues were placed dermal-side down into the center of a Millicell in a 6-well plate well containing prewarmed maintenance medium. The tissues were incubated at 37°C in an atmosphere of 5% CO2 in air. After 24 h the maintenance medium was exchanged.
Following another 24 h the Maintenance medium was removed and replaced by Serum- free assay medium containing 5% "stripped" fetal calf serum. Substances were added within 1 h after medium exchange and the tissues were incubated for 10 or 48 h in the presence of the substances. Medium and substances were changed after 24 h incubation. The cells were grown at an air - liquid interface. At the end of the 48 h-incubation period two tissues were pooled together in a sterile plastic centrifugation tube. The tissue was snap frozen on solid ice (-60°C) and stored at -70°C until used. Duplicate samples were included for each treatment.
Total RNA was extracted from Skin^2 -samples and human skin biopsies using Ultraspec II (Biotecx Laboratories, Inc., Houston, TX). One ml of Ultraspec II was added to each sample which were homogenized by using a Polytron for 2x20 sec at setting 6. Total RNA was extracted according to the protocol supplied by the manufacturer. […] After incubation at 37°C for 60 min, the reaction was stopped by heating at 75°C for 10 min and the mixture stored at -70°C until cDNA amplification was performed.
The tubes were placed in a Thermal cycler (Perkin-Elmer) programmed as follows: (a) 90°C for 90 s; (b) variable number of cycles (see Table 1) of the following sequential steps: 60 s at 94°C, 75 s at annealing temp (see Table 1), 90 s at 72°C; and (c) 7 min at 72°C. […] Gels were recorded by videoprints. The amount of product was estimated on the videopoint or directly on the gel. The amount of transcripts in each lane were compared in relation to two control samples run in parallel.

As for `CC1=C(/C=C/C(C)=C/C=C/C(C)=C/C(=O)O)C(C)(C)CCC1` [RA, All-trans-retinoic acid], in the test on Skin-2 model ZK1301 (setting [1]), the IL-6 is reported as -1, the “col 1A-1” value was determined as 2, the “col 3A-1” value turned out to be 1 and the crabp-II was 1. In the test with Skin-2 model ZK1301 (setting [1]), the “ctgf(pdgf-L)” value worked out at 1, the k1 was -3, the k10 is on record as -1 and the k16 is -0.5. In the test on Skin-2 model ZK1301 (setting [1]), this compound had a k19 of -1, a tgfbeta-2 of 2 and a trans gk of -3.
For orientation: pKi means the Ki on a negative log10 scale, so that one unit is a factor of ten. `N[C@@H](Cc1ccc(Oc2ccc(O)cc2)c(I)c1)C(=O)O` [L-T-1, 3-idodo-L-Thronine]: at human thyroid receptor, the pKi is 4.70. At human thyroid receptor (b58: even at the tested ten micromolar concentration), the “binding to the thyroid hormone receptor (in words)” value is “no thyroid hormone receptor binding activity; also recorded: binds poorly”. Moreover, in the test with Skin-2 model ZK1301 (setting [2]), the “col a-1” value turned out to be 0.5, the “col a-3” value was 0.5, the “gf(pdgf-L)” value turned out to be 1 and the k1 was 0. In the test on Skin-2 model ZK1301 (setting [2]), this compound showed a k10 of 0, a k16 of 0, a scce of 1 and a trans gk of 1. Moreover, in the test on Skin-2 model ZK1301 (setting [3]), the “col a-1” value is “only modest effects”, the “col a-3” value was “only modest effects”, the k1 entry is given as “no inhibition” and the k10 result was “no inhibition”. Besides, in the test with Skin-2 model ZK1301 (setting [3]), the scce result is reported as “positive effect” and the trans gk result is reported as “positive effect”.
Consider `N[C@@H](Cc1cc(I)c(Oc2cc(I)c(O)c(I)c2)c(I)c1)C(=O)O` [compound number 3, Thyroxine], for which, in the test on Skin-2 model ZK1301 (setting [4]), the “col a-1” value is recorded as 2, the “col a-3” value is listed as 0.5, the “gf(pdgf-L)” value is reported as 1 and the k1 is -2. In the test with Skin-2 model ZK1301 (setting [4]), this compound yielded a k10 of -1, a k16 of 0, a scce of 0 and a trans gk of 1.
On to `C[C@H]1C[C@H]2[C@@H]3CCC4=CC(=O)C=C[C@]4(C)[C@@]3(F)[C@@H](O)C[C@]2(C)[C@@]1(O)C(=O)CO` [betameth, betamethasone], for which, in the test with Skin-2 model ZK1301 (setting [1]), the IL-6 was -2, the “col 1A-1” value was found to be 0.5, the “col 3A-1” value is on record as -0.5 and the crabp-II is listed as -1. In the test with Skin-2 model ZK1301 (setting [1]), the “ctgf(pdgf-L)” value is given as 1, the k1 is -3, the k10 is listed as -0.5 and the k16 is -1. Also, in the test with Skin-2 model ZK1301 (setting [1]), the k19 is given as -0.5, the scce is given as -1, the tgfbeta-2 was found to be 0 and the trans gk is reported as -1.
As for `O=C(O)Cc1cc(I)c(Oc2ccc(O)c(I)c2)c(I)c1` [Triac, tri-iodothyroacetic acid], in the test with Skin-2 model ZK1301 (setting [5]), the “ctgf(pdgf-L)” value is reported as 1, the k16 is -1 and the k19 is on record as -1. For the same compound, in the test on Skin-2 model ZK1301 (setting [1]), the IL-6 is -0.5, the “col 1A-1” value came out at 2, the “col 3A-1” value was found to be 1 and the crabp-II was -1. In addition, in the test on Skin-2 model ZK1301 (setting [1]), the k1 was -2, the k10 was -2, the k16 is listed as -0.5 and the k19 is on record as -1. In the test on Skin-2 model ZK1301 (setting [1]), this compound registered a scce of -2, a tgfbeta-2 of 2 and a trans gk of -3. In the test with Skin-2 model ZK1301 (setting [6]), this compound yielded a k1 of -2 and a k16 of 0. In the test with Skin-2 model ZK1301 (setting [4]), the “col a-1” value is given as 1; the “col a-3” value came out at 1; the “gf(pdgf-L)” value is 2 and 1; the k1 was -1. In the test on Skin-2 model ZK1301 (setting [4]), this compound registered a k16 of 0 and a trans gk of -0.5. In addition, in the test with Hairless mice SKH-1, the skin collagen result is “increase” and the “wrinkle pattern of the animals” value was “significant decrease”. The “dose range at which phosphodiesterase inhibition and cyclic AMP increase occur” value in the test with phosphodiesterase is on record as “approximately 10^-4 M”.
In the case of `C=C1C(=CC=C2CCCC3(C)C2CCC3C(C)CCCC(C)(C)O)CC(O)CC1O` (stereo not shown) [vit D, 1,25-(OH)2-vitamin D3], in the test with Skin-2 model ZK1301 (setting [1]), the IL-6 is given as -1, the “col 1A-1” value is 2, the “col 3A-1” value turned out to be 2 and the crabp-II was -1. Further, in the test on Skin-2 model ZK1301 (setting [1]), the “ctgf(pdgf-L)” value is reported as 0, the k1 is 0, the k10 is recorded as -1 and the k16 is on record as 0. Also, in the test with Skin-2 model ZK1301 (setting [1]), the k19 worked out at 0, the scce is 0, the tgfbeta-2 is listed as 2 and the trans gk is given as -1.
At human thyroid receptor, `NC(Cc1cc(Br)c(Oc2ccc(O)c(Cc3ccc(=O)[nH]n3)c2)c(Br)c1)C(=O)O` (stereo not shown) [compound number 5] gave a negative-log Ki (pKi) of 8.10. The “relative selectivity of gene responses” value in the test on Skin-2 model ZK1301 (Skin-2 model, 1 µM, epidermal differentiation genes versus collagen genes) is “relative selectively for keratin 1, tranglutaminase K and SCCE responses over collagen responses”. Besides, in the test on Skin-2 model ZK1301 (setting [4]), the “col a-1” value amounted to 0, the “col a-3” value is 0 and the k16 is given as -0.5.
For `Cc1cc(C[C@H](N)C(=O)O)cc(C)c1Oc1ccc(O)c(C(C)C)c1` [compound number 6, 1-3,5-Dimethyl-3'-isopropylthyronine], on human thyroid receptor (Table 3, binding affinity to the human thyroid receptor, read-out: Ki), the pKi was 7.12. In the test with Skin-2 model ZK1301 (setting [4]), the “col a-1” value turned out to be 1, the “col a-3” value is 0.5, the “gf(pdgf-L)” value is reported as 1 and the k1 is -2. In the test with Skin-2 model ZK1301 (setting [4]), this compound gave a k10 of -1, a k16 of 0, a scce of -1 and a trans gk of -2.
Turning to `Cc1cc(NC(=O)C(=O)O)cc(C)c1Oc1ccc(O)c(C(C)C)c1` [compound number 7, N-[3,5-Dimethy-4-(4'-hydroxy-3'-isopropylphenoxy)-phenyl]oxamic Acid], the pKi on human thyroid receptor is 10.00. For the same compound, in the test with Skin-2 model ZK1301 (setting [4]), the “col a-1” value came out at 1, the “col a-3” value was found to be 1, the “gf(pdgf-L)” value is on record as 1 and the k1 was -1. In the test on Skin-2 model ZK1301 (setting [4]), this compound came in with a k10 of 1, a k16 of 0.5, a scce of -1 and a trans gk of -1.
As to `O=C(O)c1cc(I)c(Oc2ccc(O)c(I)c2)c(I)c1` [compound number 2], the negative-log Ki (pKi) on human thyroid receptor was 10.00. In the test with Skin-2 model ZK1301 (setting [4]), the “col a-1” value is 2, the “col a-3” value was determined as 1, the “gf(pdgf-L)” value is on record as 1 and the k1 is -1. In the test with Skin-2 model ZK1301 (setting [4]), this compound returned a k10 of 0, a k16 of 0, a scce of 0.5 and a trans gk of 0.5.
Regarding `N[C@@H](Cc1cc(I)c(Oc2ccc(O)c(I)c2)c(I)c1)C(=O)O` [compound number 1, Trilodothyronine], in the test with Skin-2 model ZK1301 (setting [4]), the “col a-1” value stood at 1, the “col a-3” value turned out to be 2, the “gf(pdgf-L)” value is recorded as 1 and the k1 was -2. In the test on Skin-2 model ZK1301 (setting [4]), this compound registered a k10 of -0.5, a k16 of 0, a scce of 0.5 and a trans gk of 0.
